Test results from publication PMC10795796 (Biochemistry, 2023).

Target: T1, TIR domain of TIR-1 (Caenorhabditis elegans, UniProt Q86DA5)
T1 sequence (Q86DA5 707-930): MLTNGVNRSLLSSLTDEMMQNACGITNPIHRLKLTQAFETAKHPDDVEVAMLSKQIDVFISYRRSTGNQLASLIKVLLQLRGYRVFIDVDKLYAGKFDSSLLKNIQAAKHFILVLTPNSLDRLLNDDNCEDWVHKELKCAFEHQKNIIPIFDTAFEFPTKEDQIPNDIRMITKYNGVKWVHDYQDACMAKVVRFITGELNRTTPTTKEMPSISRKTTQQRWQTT
Experiment: direct fluorescent base exchange assay
Assay type: biochemical
Settings: […] °C

Km ([…] NAD+ (saturating), […] PEG […] Tris pH […] NaCl) | Km ([…] PC6 (saturating), […] PEG […] Tris pH […] NaCl) | Structure (SMILES)
165 µM | – | CCOc1ccc(/C=C/c2ccncc2)cc1 [PC6]
– | 630 µM | NC(=O)c1ccc[n+]([C@@H]2O[C@H](COP(=O)(O)OP(=O)(O)OC[C@H]3O[C@@H](n4cnc5c(N)ncnc54)[C@H](O)[C@@H]3O)[C@@H](O)[C@H]2O)c1 [NAD^+]
